Here are results for 57 compounds from ChEMBL document CHEMBL1137901, “Biaryl guanidine inhibitors of in vitro HCV-IRES activity” (Bioorg Med Chem Lett, 2004).

The subject of assay [1] is Hepatitis C virus. As to the kind of experiment: In vitro inhibitory concentration against hepatitis C virus internal ribosome entry site (HCV-IRES) translation. In kind it is functional, Hepacivirus hominis.
For assay [2], the system named is Hepatitis C virus. In words: Selectivity was determined as the ratio of IC50 of non-IRES to that of IC50 of HCV-IRES. In kind it is functional, Hepacivirus hominis.
The nature of assay [3]: In vitro inhibitory concentration against non internal ribosome entry site translation. In kind it is functional.

Broadly, the IC50 is the point on the concentration scale where inhibition reaches its midpoint. A high value points to a need for much substance.

Regarding `Cc1cc(C)nc(/N=C(\N)NCCc2cccnc2)n1`, the IC50 in the assay with Hepatitis C virus [1] amounted to 32 µM. The Selectivity with Hepatitis C virus [2] is given as 4.

`Cc1cc(C)nc(/N=C(\N)NCCc2ccc([N+](=O)[O-])cc2)n1` showed a 50% inhibitory concentration (IC50) in the assay with Hepatitis C virus [1] of 54 µM. In the assay on Hepatitis C virus [2], the Selectivity was determined as 1.5.

The compound `Cc1ccnc(/N=C(\N)NCCc2ccccc2)n1` showed an IC50 in the assay on Hepatitis C virus [1] of 46 µM. For the same compound, in the assay with Hepatitis C virus [2], the Selectivity is 3.5.

For `Cc1cc(C)nc(/N=C(\N)NCCc2ccc(C(=O)O)cc2)n1`, the IC50 (with Hepatitis C virus [1]; in assay [3]) was > 200 µM in each case.

Regarding `Cc1cc(C)nc(/N=C(\N)NC[C@H](O)c2ccccc2)n1`, half-maximal inhibition with Hepatitis C virus [1] (IC50) required 75 µM. Further, the Selectivity in the assay with Hepatitis C virus [2] is on record as >2.7.

The compound `Cc1cc(C)nc(/N=C(\N)NC[C@@H](O)c2ccccc2)n1` yielded an IC50 in the assay on Hepatitis C virus [1] of 9.7 µM. For the same compound, the Selectivity in the assay on Hepatitis C virus [2] is given as >2.2.

Regarding `Cc1cc(C)nc(NC(=N)NCCc2ccccc2)c1`, the IC50 (with Hepatitis C virus [1]; in assay [3]) was > 200 µM in each case.

With `Cc1nc(/N=C(\N)NCCc2ccccc2)nc(C)c1O`, the IC50 in the assay on Hepatitis C virus [1] is 19 µM. The Selectivity in the assay with Hepatitis C virus [2] is 3.6.

With `Cc1cc(C)cc(NC(=N)NCCc2ccccc2)c1`, the IC50 (in the assay with Hepatitis C virus [1]; in assay [3]) was > 200 µM in each case.

`Cc1cc(C)nc(/N=C(\N)NCCc2ccncc2)n1` gave a concentration for half-maximal inhibition (IC50) in the assay on Hepatitis C virus [1] of 55 µM. In addition, the Selectivity in the assay on Hepatitis C virus [2] is recorded as >3.6.

Regarding `Cc1cc(C)nc(/N=C(\N)NCC(c2ccccc2)c2ccccc2)n1`, half-maximal inhibition with Hepatitis C virus [1] (IC50) was put at 75 µM. In the assay with Hepatitis C virus [2], the Selectivity was >2.7.

`Cc1cc(C)nc(/N=C(\N)NCCc2ccc(Br)cc2)n1`: in the assay on Hepatitis C virus [1], 50 µM corresponded to half-maximal inhibition (IC50). The Selectivity with Hepatitis C virus [2] amounted to 2.5.

In the case of `Cc1cc(C)nc(/N=C(\N)NCCc2ccccc2C)n1`, it took 15 µM to reach half-maximal inhibition in the assay with Hepatitis C virus [1] (IC50). In the assay on Hepatitis C virus [2], the Selectivity was determined as 1.8.

Consider `COC(=O)c1ccc(CC/N=C(\N)Nc2nc(C)cc(C)n2)cc1`, for which, in the assay with Hepatitis C virus [1], half-maximal inhibition (IC50) was put at 29 µM. Moreover, in the assay with Hepatitis C virus [2], the Selectivity is listed as 3.4.

Compound `Cc1nc(/N=C(\N)NCCc2ccccc2)nc(C)c1Br` showed a 50% inhibitory concentration (IC50) with Hepatitis C virus [1] of 8.1 µM. Also, the Selectivity with Hepatitis C virus [2] came out at 2.2.

As to `Cc1cc(C)nc(/N=C(\N)NCCc2ccc(C(C)(C)C)cc2)n1`, the concentration for half-maximal inhibition (IC50) (in the assay with Hepatitis C virus [1]; in assay [3]) was > 200 µM each time.

Take `COc1ccc(CCNC(=N)Nc2nc(C)cc(C)n2)cc1`: in the assay on Hepatitis C virus [1], 25 µM corresponded to half-maximal inhibition (IC50). The Selectivity with Hepatitis C virus [2] stood at 4.1.

Consider `Cc1cc(C)nc(/N=C(\N)NCc2cccs2)n1`, for which it took 38 µM to reach half-maximal inhibition in the assay with Hepatitis C virus [1] (IC50). In addition, the Selectivity in the assay on Hepatitis C virus [2] was found to be 1.3.

In turn, `Cc1cccc(CC/N=C(\N)Nc2nc(C)cc(C)n2)c1` returned an IC50 in the assay with Hepatitis C virus [1] of 23 µM. Besides, the Selectivity in the assay on Hepatitis C virus [2] stood at 2.8.

Turning to `Cc1cc(C)nc(/N=C(\N)NCCc2ccc(OC(F)(F)F)cc2)n1`, in the assay on Hepatitis C virus [1], the midpoint of inhibition, the IC50, lay at 92 µM. Further, the Selectivity in the assay on Hepatitis C virus [2] was >2.2.

The compound `COc1cc(OC)nc(/N=C(\N)NCCc2ccccc2)n1` showed an IC50 in the assay on Hepatitis C virus [1] of 35 µM. For the same compound, in the assay on Hepatitis C virus [2], the Selectivity came out at 5.

As to `Cc1cc(C)nc(/N=C(\N)NCCc2ccc(F)cc2)n1`, the half-maximal inhibitory concentration (IC50) in the assay on Hepatitis C virus [1] stood at 23 µM. In addition, the Selectivity in the assay on Hepatitis C virus [2] is recorded as 4.1.

In turn, `Cc1cc(C)nc(/N=C(\N)NCCc2ccc(Cl)cc2)n1` gave an IC50 with Hepatitis C virus [1] of 24 µM. Moreover, the Selectivity with Hepatitis C virus [2] was determined as 2.3.

Turning to `COc1c(C)nc(/N=C(\N)NCCc2ccccc2)nc1C`, the midpoint of inhibition in the assay on Hepatitis C virus [1], the IC50, lay at 9.9 µM. Moreover, the Selectivity in the assay with Hepatitis C virus [2] was 3.4.

In the assay on Hepatitis C virus [1], `Cc1cc(C)nc(/N=C(\N)NCCc2ccccc2Cl)n1` registered a concentration for half-maximal inhibition (IC50) of 16 µM. Besides, the Selectivity in the assay with Hepatitis C virus [2] is given as 1.8.

Consider `Cc1nc(/N=C(\N)NCCc2ccccc2)nc(C)c1OCCCN(C)C`, for which the IC50 in the assay with Hepatitis C virus [1] is 2.1 µM. In the assay on Hepatitis C virus [2], the Selectivity is 2.

Turning to `Cc1cc(C)nc(/N=C(\N)NCCc2cccc(Cl)c2)n1`, half-maximal inhibition with Hepatitis C virus [1] (IC50) required 12 µM. Besides, in the assay on Hepatitis C virus [2], the Selectivity came out at 1.8.

For the compound `COc1cc(CC/N=C(\N)Nc2nc(C)cc(C)n2)cc(OC)c1`, in the assay with Hepatitis C virus [1], the IC50 was 26 µM. Also, the Selectivity with Hepatitis C virus [2] is given as >7.7.

In the assay with Hepatitis C virus [1], `COc1ccc(CC/N=C(\N)Nc2nc(C)cc(C)n2)c(OC)c1` registered an IC50 of 68 µM. Also, the Selectivity in the assay on Hepatitis C virus [2] came out at 2.6.

Regarding `Cc1ccc(CC/N=C(\N)Nc2nc(C)cc(C)n2)cc1`, the IC50 in the assay with Hepatitis C virus [1] is 34 µM. The Selectivity in the assay with Hepatitis C virus [2] came to 3.8.

Consider `Cc1cc(C)nc(/N=C(\N)NCCc2ccc(C(F)(F)F)cc2)n1`, for which, in the assay with Hepatitis C virus [1], the concentration for half-maximal inhibition (IC50) turned out to be 82 µM. Also, in the assay on Hepatitis C virus [2], the Selectivity came to 2.2.

Regarding `COc1ccccc1CC/N=C(\N)Nc1nc(C)cc(C)n1`, the half-inhibitory concentration (IC50) with Hepatitis C virus [1] stood at 13 µM. Besides, the Selectivity in the assay on Hepatitis C virus [2] is 1.8.

In turn, `Cc1cc(C)nc(/N=C(\N)NCCc2ccc3ccccc3n2)n1` displayed an IC50 in the assay with Hepatitis C virus [1] of 23 µM. For the same compound, the Selectivity in the assay on Hepatitis C virus [2] amounted to 3.7.

Compound `CCc1cc(CC)nc(/N=C(\N)NCCc2ccccc2)n1` displayed an IC50 with Hepatitis C virus [1] of 13 µM. Moreover, the Selectivity in the assay on Hepatitis C virus [2] came out at 2.2.

`Cc1ccc(CC/N=C(\N)Nc2nc(C)cc(C)n2)c(C)c1` returned an IC50 in the assay with Hepatitis C virus [1] of 23 µM. The Selectivity with Hepatitis C virus [2] is recorded as 3.3.

For `Cc1cc(C)nc(/N=C(\N)NCc2ccco2)n1`, in the assay with Hepatitis C virus [1], the IC50 turned out to be 97 µM. Besides, the Selectivity in the assay with Hepatitis C virus [2] is on record as >2.

As for `COc1cc(OC)c(CC/N=C(\N)Nc2nc(C)cc(C)n2)c(OC)c1`, in the assay on Hepatitis C virus [1], the concentration for half-maximal inhibition (IC50) was found to be 100 µM. Also, the Selectivity with Hepatitis C virus [2] is reported as >2.

`Cc1cc(C)nc(/N=C(\N)NCCc2ccccn2)n1`: the midpoint of inhibition with Hepatitis C virus [1], the IC50, lay at 39 µM. Further, the Selectivity in the assay on Hepatitis C virus [2] was found to be 2.4.

Compound `Cc1cc(C)nc(N/C(N)=N/CCc2ccc(C(C)C)cc2)n1` came in with a half-inhibitory concentration (IC50) in the assay on Hepatitis C virus [1] of 104 µM. In addition, in the assay with Hepatitis C virus [2], the Selectivity was >1.9.

In the assay on Hepatitis C virus [1], `COc1ccc(OC)c(CC/N=C(\N)Nc2nc(C)cc(C)n2)c1` yielded a half-maximal inhibitory concentration (IC50) of 94 µM. For the same compound, the Selectivity with Hepatitis C virus [2] is >2.1.

As for `Cc1cc(C)nc(NC(=N)N(C)CCc2ccccc2)n1`, the 50% inhibitory concentration (IC50) (in the assay with Hepatitis C virus [1]; in assay [3]) was > 200 µM throughout.

As to `CCOc1ccc(CC/N=C(\N)Nc2nc(C)cc(C)n2)cc1`, the 50% inhibitory concentration (IC50) in the assay with Hepatitis C virus [1] was 82 µM. In addition, in the assay with Hepatitis C virus [2], the Selectivity is >2.4.

For `Cc1cc(C)nc(NC(=O)NCCc2ccccc2)n1`, the IC50 (with Hepatitis C virus [1]; in assay [3]) was > 200 µM in each case.

On to `Cc1cc(C)nc(/N=C(\S)NCCc2ccccc2)n1`, for which the 50% inhibitory concentration (IC50) (with Hepatitis C virus [1]; in assay [3]) was > 200 µM in each case.

`Cc1cc(C)nc(N/C(N)=N/C[C@H](C)c2ccccc2)n1` displayed an IC50 with Hepatitis C virus [1] of 35 µM. Also, in the assay with Hepatitis C virus [2], the Selectivity is 5.7.

`Cc1cc(C)nc(N(C)C(=N)NCCc2ccccc2)n1`: the IC50 (in the assay on Hepatitis C virus [1]; in assay [3]) was > 200 µM in each case.

Compound `Cc1cc(C)nc(/N=C(\N)NCCc2ccc(-c3ccccc3)cc2)n1` gave a 50% inhibitory concentration (IC50) in the assay with Hepatitis C virus [1] of 80 µM. For the same compound, the Selectivity in the assay with Hepatitis C virus [2] was >2.5.

In the assay on Hepatitis C virus [1], `Cc1cc(C)nc(/N=C(\N)NCCc2ccc(O)cc2)n1` returned a 50% inhibitory concentration (IC50) of 49 µM. In addition, the Selectivity with Hepatitis C virus [2] is recorded as 3.

Compound `Cc1ccc(C)c(CC/N=C(\N)Nc2nc(C)cc(C)n2)c1` returned an IC50 in the assay on Hepatitis C virus [1] of 35 µM. Moreover, the Selectivity in the assay on Hepatitis C virus [2] was found to be 5.7.

`Cc1cc(C)nc(/N=C(\N)NCc2cc3ccccc3o2)n1`: the 50% inhibitory concentration (IC50) in the assay with Hepatitis C virus [1] is 25 µM. In the assay on Hepatitis C virus [2], the Selectivity was determined as 2.8.

As to `Cc1nc(/N=C(\N)NCCc2ccccc2)nc(C)c1C`, in the assay on Hepatitis C virus [1], the midpoint of inhibition, the IC50, lay at 4.2 µM. Further, the Selectivity with Hepatitis C virus [2] was 1.3.

For `Cc1cc(C)nc(/N=C(\N)NCCc2ccccc2)n1`, in the assay on Hepatitis C virus [1], the concentration for half-maximal inhibition (IC50) came to 9.6 µM. The Selectivity with Hepatitis C virus [2] stood at 2.4.

The compound `Cc1cc(C)nc(/N=C(\N)NCCCc2ccccc2)n1` registered a half-inhibitory concentration (IC50) with Hepatitis C virus [1] of 150 µM. The Selectivity in the assay on Hepatitis C virus [2] is reported as 1.3.

In turn, `Cc1cc(C)nc(N/C(N)=N/C[C@@H](C)c2ccccc2)n1` returned an IC50 in the assay with Hepatitis C virus [1] of 21 µM. For the same compound, the Selectivity in the assay on Hepatitis C virus [2] was 1.9.

On to `Cc1cc(C)nc(/N=C(\N)NCc2ccccc2)n1`, for which, in the assay on Hepatitis C virus [1], the midpoint of inhibition, the IC50, lay at 7.6 µM. Also, in the assay on Hepatitis C virus [2], the Selectivity was determined as 2.6.

In the assay with Hepatitis C virus [1], `Cc1cc(C)nc(/N=C(\N)NCCc2ccc(N)cc2)n1` returned an IC50 of 61 µM. Moreover, in the assay on Hepatitis C virus [2], the Selectivity came to 2.5.

Regarding `Cc1cc(C)nc(/N=C(\N)NCc2nc3ccccc3[nH]2)n1`, inhibition in the assay with Hepatitis C virus [1] was half-maximal at 23 µM (IC50). Also, the Selectivity in the assay with Hepatitis C virus [2] amounted to 1.7.
